Test results as given in patent publication US11197477B2, “Aqueous capsule suspension concentrates based on 2-[(2,4-dichlorophenyl)methyl]-4,4′-dimethyl-3-isoxazolidinone” (priority 2016, dated 2021).

Experiments:
[1] = Solubility of the active ingredient in Solvesso 200 ND; format: physicochemical; conditions: at room temperature; at higher concentrations the active ingredient crystallizes out in the capsule
From the text: At higher concentrations, the active ingredient crystallizes out in the capsule.

[2] = cited from earlier work

## CC1(C)CON(Cc2ccc(Cl)cc2Cl)C1=O [DCPMI, 2-[(2,4-dichlorophenyl)methyl]-4,4′-dimethyl-3-isoxazolidinone]
[1]
  solubility of the active ingredient in Solvesso 200 ND: 35 % by weight
[2]
  water solubility: 39.5 ppm

## CC1(C)CON(Cc2ccccc2Cl)C1=O [clomazone, 2-(2-chlorobenzyl)-4,4-dimethyl-1,2-oxazolidin-3-one]
[2]
  water solubility: 1000 ppm
